# Active and inactive are the calls of the source. The calls are words filed in the database; no cut-off is given here.
# What was measured:
# [1] = test system: Cellular tumor antigen p53 (Homo sapiens), P04637 [V272M]; assay: Restoration of p53-V272M mutant transcriptional activity on PUMA promoter in human NCI-H1299 cells at 10 uM pretreated with -auranofin for 10 mins followed by compound addition for 10 mins and further incubation in fresh medium for 24 hrs by firefly/renilla based luciferase reporter assay; type: cell-based
# [2] = test system: U-937; assay: Induction of senescence in human U-937 cells overexpressing p53-V272M mutant assessed as upregulation of PML gene expression by RT-qPCR analysis; type: functional, cell-based
# [3] = Drug uptake in human HepG2 cells assessed as arsenic localization in cytoplasm at 10 uM incubated for 1 hr by ICP-MS analysis; type: ADME, cell-based; details: hepg2, 1 h
# [4] = test system: HL-60; assay: Upregulation of PUMA protein expression in human HL-60 cells overexpressing p53-V272M mutant pretreated for 1 hr followed by culturing in fresh medium for 16 hrs by Western blot analysis; type: functional, cell-based
# [5] = test system: NCI-H1299; assay: Upregulation of PUMA protein expression in human NCI-H1299 cells overexpressing p53-V272M mutant pretreated for 1 hr followed by culturing in fresh medium for 16 hrs by Western blot analysis; type: functional, cell-based
# [6] = test system: U-937; assay: Induction of intrinsic apoptosis in human U-937 cells overexpressing p53-V272M mutant assessed as upregulation of BAX gene expression by RT-qPCR analysis; type: functional, cell-based
# [7] = Drug uptake in human U-937 cells harboring p53-V272M mutant at 10 uM measured after 10 mins by ICP-MS analysis; type: ADME, cell-based; details: u-937, 10 min
# [8] = test system: U-937; assay: Upregulation of p21 mRNA expression in human U-937 cells overexpressing p53-V272M mutant pretreated for 1 hr followed by culturing in fresh medium for 4 hrs by RT-qPCR analysis; type: functional, cell-based
# [9] = Drug accumulation in ICR mouse liver at 10 mg/kg, iv measured upto 24 hrs by ICP-MS analysis; type: ADME, organism-based; details: in vivo
# [10] = test system: U-937; assay: Cytotoxicity against p53 null human U-937 cells harboring p53 V272M mutant incubated for 48 hrs by CCK-8 assay; type: functional, cell-based; details: U-937, 48 h
# [11] = test system: HL-60; assay: Upregulation of PUMA mRNA expression in human HL-60 cells overexpressing p53-V272M mutant at 2 uM pretreated for 1 hr followed by culturing in fresh medium for 8 hrs by RT-qPCR analysis; type: functional, cell-based
# [12] = test system: U-937; assay: Induction of cell cycle arrest in human U-937 cells harboring p53-V272M mutant at 0.5 to 8 uM pretreated for 1 hr followed by culturing in fresh medium for 24 hrs by RNase/PI staining based flow cytometry analysis; type: functional; details: dose 0.5-8 µM
# [13] = test system: NB-4; assay: Induction of apoptosis in human NB4 cells assessed as early apoptotic cells at 27 uM preincubated for 1 hrs followed by replacement with fresh culture medium and measured after 24 hrs by Annexin V-FITC/7AAD staining based flow cytometry assay (reference value: 2.15%); type: functional
# [14] = Chemical stability of compound in PBS at 10 uM incubated for 1 hr by LC-MS analysis; type: physicochemical; details: buffer
# [15] = test system: HL-60; assay: Upregulation of p21 protein expression in human HL-60 cells overexpressing p53-V272M mutant pretreated for 1 hr followed by culturing in fresh medium for 16 hrs by Western blot analysis; type: functional, cell-based
# [16] = test system: U-937; assay: Antitumor activity against human U-937 cells harboring p53-V272M mutant xenografted in NSG mouse assessed as delay in tumor progression at 10 mg/kg, iv administered for 9 days by bioluminescence imaging based luciferase analysis; type: functional, organism-based; details: time 9.0 day
# [17] = test system: NCI-H1299; assay: Upregulation of CDKN1A mRNA expression in human NCI-H1299 cells overexpressing p53-V272M mutant at 2 uM pretreated for 1 hr followed by culturing in fresh medium for 8 hrs by RT-qPCR analysis; type: functional, cell-based
# [18] = test system: NCI-H1299; assay: Upregulation of PUMA mRNA expression in human NCI-H1299 cells overexpressing p53-V272M mutant at 2 uM pretreated for 1 hr followed by culturing in fresh medium for 8 hrs by RT-qPCR analysis; type: functional, cell-based
# [19] = test system: NCI-H1299; assay: Upregulation of MDM2 protein expression in human NCI-H1299 cells overexpressing p53-V272M mutant pretreated for 1 hr followed by culturing in fresh medium for 16 hrs by Western blot analysis; type: functional, cell-based
# [20] = test system: U-937; assay: Antitumor activity against luciferase transduced human U-937 cells harboring p53 V272M mutant xenografted in M-NSG mouse assessed as median survival at 10 mg/kg, iv administered daily for 11 days (reference value: 11 day); type: functional
# [21] = Plasma stability in dog assessed as half life at […] measured upto 120 mins by LC-MS analysis; type: ADME, cell-free, Canis lupus familiaris
# [22] = test system: Cellular tumor antigen p53 (Homo sapiens), P04637 [V272M]; assay: Restoration of p53-V272M mutant transcriptional activity on PUMA promoter in human NCI-H1299 cells harboring siRNA-mediated CLIC1 knockdown incubated for 24 hrs by firefly/renilla based luciferase reporter assay; type: cell-based
# [23] = target: T1, PML-RARalpha (Homo sapiens) (UniProt P10276+P29590); assay: Induction of PML/RARalpha (unknown origin) degradation overexpressed in HEK293T cells assessed as residual protein level at 2 to 6 uM incubated for 1 hrs followed by replacement with fresh culture medium and measured after 16 hrs by Western blot analysis; type: cell-based; details: dose 2-6 µM
# [24] = test system: U-937; assay: Cytotoxicity against p53 null human U-937 cells harboring empty vector incubated for 48 hrs by CCK-8 assay; type: functional, cell-based; details: U-937, 48 h
# [25] = test system: U-937; assay: Induction of senescence in human U-937 cells overexpressing p53-V272M mutant assessed as upregulation of CDKN1A gene expression by RT-qPCR analysis; type: functional, cell-based
# [26] = target: T1, PML-RARalpha (Homo sapiens); assay: Induction of PML/RARalpha degradation in human NB4 cells assessed as downregulation of P2RY2 mRNA expression incubated for 1 hrs followed by replacement with fresh culture medium for 6 hrs by RT-qPCR analysis; type: cell-based; details: dose 0.3-3 µM
# [27] = Clearance in ICR mouse at 10 mg/kg, iv measured upto 24 hrs by ICP-MS analysis relative to hepatic blood flow; type: ADME, organism-based; details: in vivo
# [28] = test system: U-937; assay: Induction of extrinsic apoptosis in human U-937 cells overexpressing p53-V272M mutant assessed as upregulation of FAS gene expression by RT-qPCR analysis; type: functional, cell-based
# [29] = test system: NB-4; assay: Induction of apoptosis in human NB4 cells assessed as early apoptotic cells at 3 uM preincubated for 1 hrs followed by replacement with fresh culture medium and measured after 24 hrs by Annexin V-FITC/7AAD staining based flow cytometry assay (reference value: 2.15%); type: functional
# [30] = Drug accumulation in ICR mouse lungs at 10 mg/kg, iv measured upto 24 hrs by ICP-MS analysis; type: ADME, organism-based, Lung; details: in vivo
# [31] = test system: U-937; assay: Induction of senescence in human U-937 cells harboring p53-V272M mutant assessed as increase in SA-beta-gal positive cells at 0.5 to 8 uM pretreated for 1 hr followed by culturing in fresh medium for 8 hrs by […] microscopic analysis; type: functional, cell-based; details: dose 0.5-8 µM
# [32] = test system: NCI-H1299; assay: Inhibition of colony formation in human NCI-H1299 cells harboring p53-V272M mutant at 2 to 32 uM pretreated for 1 hr followed by culturing in fresh medium and measured on day 7 by crystal violet staining based assay; type: functional, cell-based; details: dose 2-32 µM
# T1 sequence (P10276 whole entry, looked up): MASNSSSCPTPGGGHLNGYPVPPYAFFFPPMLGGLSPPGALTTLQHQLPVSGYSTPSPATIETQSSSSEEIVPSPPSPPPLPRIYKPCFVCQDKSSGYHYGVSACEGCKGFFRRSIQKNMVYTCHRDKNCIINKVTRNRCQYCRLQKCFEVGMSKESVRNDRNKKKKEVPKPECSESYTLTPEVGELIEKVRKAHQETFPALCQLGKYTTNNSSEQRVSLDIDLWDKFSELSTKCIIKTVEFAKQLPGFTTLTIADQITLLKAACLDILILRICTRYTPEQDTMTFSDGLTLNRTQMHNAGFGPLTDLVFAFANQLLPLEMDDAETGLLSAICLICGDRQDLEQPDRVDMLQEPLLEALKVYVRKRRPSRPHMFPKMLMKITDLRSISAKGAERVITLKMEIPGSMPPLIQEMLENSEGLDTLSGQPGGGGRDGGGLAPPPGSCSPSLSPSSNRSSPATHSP
# T1 sequence (P29590 whole entry, looked up): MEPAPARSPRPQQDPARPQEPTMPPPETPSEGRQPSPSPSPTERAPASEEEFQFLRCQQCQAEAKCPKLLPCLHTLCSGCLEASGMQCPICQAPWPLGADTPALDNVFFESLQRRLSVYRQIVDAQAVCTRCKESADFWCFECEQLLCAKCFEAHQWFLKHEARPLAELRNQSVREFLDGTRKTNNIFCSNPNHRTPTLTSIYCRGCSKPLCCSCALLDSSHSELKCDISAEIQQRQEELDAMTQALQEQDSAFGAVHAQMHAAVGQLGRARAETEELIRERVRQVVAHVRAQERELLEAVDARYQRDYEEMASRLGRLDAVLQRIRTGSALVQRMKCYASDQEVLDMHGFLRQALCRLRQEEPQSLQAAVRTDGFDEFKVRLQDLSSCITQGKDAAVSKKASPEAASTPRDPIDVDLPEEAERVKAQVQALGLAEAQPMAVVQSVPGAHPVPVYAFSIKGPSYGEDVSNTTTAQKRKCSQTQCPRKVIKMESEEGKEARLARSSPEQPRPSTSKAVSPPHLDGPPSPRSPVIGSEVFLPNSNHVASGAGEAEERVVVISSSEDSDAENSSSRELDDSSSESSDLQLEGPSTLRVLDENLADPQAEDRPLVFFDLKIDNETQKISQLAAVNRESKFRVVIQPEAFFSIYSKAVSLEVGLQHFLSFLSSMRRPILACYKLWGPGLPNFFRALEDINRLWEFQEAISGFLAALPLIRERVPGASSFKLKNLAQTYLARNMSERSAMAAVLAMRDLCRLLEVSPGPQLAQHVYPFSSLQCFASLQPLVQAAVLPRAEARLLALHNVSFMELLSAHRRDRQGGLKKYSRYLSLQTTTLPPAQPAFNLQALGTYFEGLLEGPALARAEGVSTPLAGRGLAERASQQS
structure (smiles),measurement,setting,value
CC(=O)OC[C@H]1O[C@@H](S[As]2SCCS2)[C@H](OC(C)=O)[C@@H](OC(C)=O)[C@@H]1OC(C)=O,Activity,[1],inactive
same,Activity,[2],inactive
same,Drug uptake,[3],Active
same,Activity,[4],Active
same,Activity,[5],Active
same,Activity,[6],Active
same,Drug uptake,[7],Active
same,Activity,[8],Active
same,Drug uptake,[9],Active
same,IC50,[10],0.23 µM
same,Activity,[11],Active
same,Activity,[12],Active
same,Activity,[13],15.6%
same,Stability,[14],Stable
same,Activity,[15],Active
same,Activity,[16],Active
same,Activity,[17],Active
same,Activity,[18],Active
same,Activity,[19],Active
same,MST,[20],16 days
same,half-life,[21],3.06 min
same,Activity,[22],inactive
same,Activity,[23],Active
same,IC50,[24],2.1 µM
same,Activity,[25],Active
same,Activity,[26],Dose-Dependent Effect
same,CLH,[27],13.7%
same,Activity,[28],Active
same,Activity,[29],4.21%
same,Drug uptake,[30],Active
same,Activity,[31],inactive
same,inhibition,[32],Active

# From ChEMBL document CHEMBL5375988, “AcGlcAs: A Novel P53-Targeting Arsenical with Potent Cellular Uptake and Cancer Cell Selectivity” (J Med Chem, 2023)
